In ChEMBL document CHEMBL4196225, “Precedence and Promise of Covalent Inhibitors of EGFR and KRAS for Patients with Non-Small-Cell Lung Cancer” (ACS Med Chem Lett, 2018) one finds Kinact, Ki and Ratio data, which are given here for one molecule.

Assay [1] relates to GTPase KRas (Homo sapiens), P01116 [G12C]. In words: Binding affinity to hexahistidine-tagged recombinant human KRas G12C mutant expressed in Escherichia coli BL21 (DE3) assessed as first-order rate constant in presence of GDP.
Assay [2] concerns the target GTPase KRas (Homo sapiens, UniProt P01116, G12C). In words: Binding affinity to hexahistidine-tagged recombinant human KRas G12C mutant expressed in Escherichia coli BL21 (DE3) in presence of GDP.
For assay [3], the system named is GTPase KRas (Homo sapiens), P01116 [G12C]. In words: Ratio of Kinact to Ki for hexahistidine-tagged recombinant human KRas G12C mutant expressed in Escherichia coli BL21 (DE3).

Chain of GTPase KRas (Homo sapiens), P01116 [G12C] (P01116 whole entry G12C): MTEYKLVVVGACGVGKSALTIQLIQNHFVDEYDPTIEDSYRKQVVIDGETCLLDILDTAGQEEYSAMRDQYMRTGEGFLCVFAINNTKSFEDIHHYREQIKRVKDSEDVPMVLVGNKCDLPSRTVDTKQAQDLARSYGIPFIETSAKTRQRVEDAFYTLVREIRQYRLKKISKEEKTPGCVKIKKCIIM
Chain of GTPase KRas (P01116 whole entry G12C): as above

With `C=CC(=O)N1CCN(c2ncnc3c(F)c(-c4c(O)cccc4F)c(Cl)cc23)CC1` (atropisomer S), the Kinact in assay [1] is > 0.066 s⁻¹. Besides, in assay [2], the Ki is > 64 µM. Besides, the Ratio in assay [3] was determined as 1100 M⁻¹ s⁻¹.
